Experimental data published in patent publication US10953012B2, “Heterocyclic compounds for the inhibition of pask” (BioEnergenix LLC, priority 2011, dated 2021).

How the values were obtained:
hPASK (kinase domain) = hPASK (kinase domain) (Homo sapiens (Human), UniProt Q96RG2); assay: PAS Kinase Luminescence Assay (Kinase-Glo), kinase domain; assay type: biochemical
Procedure: (§1) PAS Kinase Luminescence Assay
(§2) One assay for purified hPASK activity utilizes the Kinase-Glo Luminescent Kinase Assay (Promega), which quantifies the amount of ATP remaining in solution following kinase reaction. The assay is carried out in a 96-well plate format and is performed by adding a volume of Kinase-Glo Reagent (Promega, catalog #V3771) equal to the volume of solution in the well of a completed kinase reaction. Kinase-Glo reagent contains Luciferase and its substrate. After addition to a kinase reaction it allows to measure luminescence. The amount of ATP left in solution at the time of Kinase-Glo Plus addition is directly proportional to the luminescence that is measured in each well, and inversely correlated with kinase activity.
(§3) Purified hPASK from insect cells (0.02 μg) is added to a 50 μL reaction mix containing 40 mM HEPES (pH 7.0), 100 mM KCl, 5 mM MgCl2, 1 mM DTT and 1 μg of MBP protein. Inhibitory compounds are then added and the mixture is incubated for 10 min at 25° C. before adding 5 μL of ATP (at desired concentration). The reaction is allowed to proceed at 25° C. for 1 hour before adding 50 μL of Kinase-Glo reagent. The luminescence is measured as soon as 10 minutes after Kinase-Glo reagent is added.
(§4) Results are shown below in Table 1, where NT means not tested.

hPASK (full length) = hPASK (full length) (Homo sapiens (Human), UniProt Q96RG2); assay: PAS Kinase Luminescence Assay (Kinase-Glo), full length; assay type: biochemical
Procedure: as §1, §2, §3, §4

Chain of hPASK (full length) (Q96RG2 whole entry): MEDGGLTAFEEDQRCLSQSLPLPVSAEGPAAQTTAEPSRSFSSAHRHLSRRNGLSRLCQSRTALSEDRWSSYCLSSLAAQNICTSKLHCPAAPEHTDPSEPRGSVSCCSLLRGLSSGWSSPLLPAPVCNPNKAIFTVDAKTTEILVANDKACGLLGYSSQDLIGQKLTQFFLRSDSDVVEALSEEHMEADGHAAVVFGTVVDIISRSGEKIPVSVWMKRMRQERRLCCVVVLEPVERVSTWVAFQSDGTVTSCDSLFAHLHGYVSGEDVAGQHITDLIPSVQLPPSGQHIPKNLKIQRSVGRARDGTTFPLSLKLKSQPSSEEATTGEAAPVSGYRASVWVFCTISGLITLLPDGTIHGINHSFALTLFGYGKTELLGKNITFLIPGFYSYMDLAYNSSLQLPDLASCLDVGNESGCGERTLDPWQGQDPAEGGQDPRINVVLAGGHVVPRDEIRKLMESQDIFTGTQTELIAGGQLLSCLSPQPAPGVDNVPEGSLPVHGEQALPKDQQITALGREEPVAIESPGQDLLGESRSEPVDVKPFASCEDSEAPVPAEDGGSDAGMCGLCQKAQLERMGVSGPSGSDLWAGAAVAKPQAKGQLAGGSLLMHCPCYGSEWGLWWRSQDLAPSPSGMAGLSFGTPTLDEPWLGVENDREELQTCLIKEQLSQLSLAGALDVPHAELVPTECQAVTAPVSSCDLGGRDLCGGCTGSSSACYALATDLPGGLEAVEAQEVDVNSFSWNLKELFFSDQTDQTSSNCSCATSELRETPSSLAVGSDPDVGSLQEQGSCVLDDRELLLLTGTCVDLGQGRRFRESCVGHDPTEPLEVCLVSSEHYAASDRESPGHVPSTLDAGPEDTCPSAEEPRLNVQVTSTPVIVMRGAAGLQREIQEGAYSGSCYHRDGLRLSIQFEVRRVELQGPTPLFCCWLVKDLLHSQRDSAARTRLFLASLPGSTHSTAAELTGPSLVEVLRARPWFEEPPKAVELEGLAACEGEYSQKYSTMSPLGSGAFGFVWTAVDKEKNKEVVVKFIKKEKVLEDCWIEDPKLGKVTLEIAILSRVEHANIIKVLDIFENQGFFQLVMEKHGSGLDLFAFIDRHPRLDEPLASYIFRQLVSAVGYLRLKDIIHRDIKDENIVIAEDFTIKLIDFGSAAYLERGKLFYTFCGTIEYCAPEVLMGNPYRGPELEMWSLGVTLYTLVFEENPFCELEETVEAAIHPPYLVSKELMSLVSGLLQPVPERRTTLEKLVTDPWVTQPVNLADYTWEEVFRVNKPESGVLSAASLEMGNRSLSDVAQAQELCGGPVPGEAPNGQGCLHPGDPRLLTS
Chain of hPASK (kinase domain) (Q96RG2 999-1251): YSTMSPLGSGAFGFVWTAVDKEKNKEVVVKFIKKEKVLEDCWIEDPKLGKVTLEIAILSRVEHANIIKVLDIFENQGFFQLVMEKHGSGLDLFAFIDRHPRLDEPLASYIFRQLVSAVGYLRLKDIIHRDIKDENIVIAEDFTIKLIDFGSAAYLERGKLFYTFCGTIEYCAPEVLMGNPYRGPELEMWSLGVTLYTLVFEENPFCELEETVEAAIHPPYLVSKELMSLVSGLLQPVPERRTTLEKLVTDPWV

| Structure (SMILES) | IC50 (hPASK (kinase domain)) [µM] | IC50 (hPASK (full length)) [µM] |
| --- | --- | --- |
| COc1ccccc1-c1cc(=O)n2nc(C)c(-c3ccccc3)c2[nH]1 [Example 16, 5-(2-Methoxy-phenyl)-2-methyl-3-phenyl-4H-pyrazolo[1,5-a]pyrimidin-7-one] | ≤ 10 | ≤ 10 |
| Cc1nn2c(=O)cc(-c3ccc(Cl)cc3)[nH]c2c1-c1ccccc1 [Example 17, 5-(4-Chloro-phenyl)-2-methyl-3-phenyl-4H-pyrazolo[1,5-a]pyrimidin-7-one] | ≤ 10 | ≤ 10 |
| CCCc1cc(=O)n2nc(Cc3ccccc3)c(-c3ccc(Cl)cc3)c2[nH]1 [Example 18, 2-Benzyl-3-(4-chloro-phenyl)-5-propyl-4H-pyrazolo[1,5-a]pyrimidin-7-one] | ≥ 10 | ≥ 10 |
| COCc1cc(=O)n2nc(Cc3ccccc3)c(-c3ccc(OC)cc3)c2[nH]1 [Example 19, 2-Benzyl-5-methoxymethyl-3-(4-methoxy-phenyl)-4H-pyrazolo[1,5-a]pyrimidin-7-one] | ≥ 10 | ≥ 10 |
| O=c1cc(Cc2ccccc2)[nH]c2c(-c3ccccc3)c(Cc3ccccc3)nn12 [Example 21, 2,5-Dibenzyl-3-phenyl-4H-pyrazolo[1,5-a]pyrimidin-7-one] | ≥ 10 | ≥ 10 |
| CCCc1cc(=O)n2nc(C)c(-c3ccc(Cl)cc3)c2[nH]1 [Example 22, 3-(4-Chloro-phenyl)-2-methyl-5-propyl-4H-pyrazolo[1,5-a]pyrimidin-7-one] | ≥ 10 | ≥ 10 |
| COc1ccc(-c2c(C)nn3c(=O)cc(Cc4ccccc4)[nH]c23)cc1 [Example 23, 5-Benzyl-3-(4-methoxy-phenyl)-2-methyl-4H-pyrazolo[1,5-a]pyrimidin-7-one] | ≥ 10 | ≥ 10 |
| COCc1cc(=O)n2nc(Cc3ccccc3)c(-c3ccc(Cl)cc3)c2[nH]1 [Example 24, 2-Benzyl-3-(4-chloro-phenyl)-5-methoxymethyl-4H-pyrazolo[1,5-a]pyrimidin-7-one] | ≥ 10 | ≥ 10 |
| Cc1nn2c(=O)c3c([nH]c2c1-c1ccc(Cl)cc1)CCC3 [Example 27, 3-(4-Chlorophenyl)-2-methyl-6,7-dihydro-4H-cyclopenta[d]pyrazolo[1,5-a]pyrimidin-8(5H)-one] | ≥ 10 | ≥ 10 |
| COCc1cc(=O)n2nc(-c3ccc(Cl)cc3)cc2[nH]1 [Example 29, 2-(4-Chloro-phenyl)-5-methoxymethyl-4H-pyrazolo[1,5-a]pyrimidin-7-one] | ≥ 10 | ≥ 10 |

Further lines, results first:

| IC50 (hPASK (kinase domain)) [µM] | IC50 (hPASK (full length)) [µM] | Structure (SMILES) |
| --- | --- | --- |
| ≥ 10 | ≥ 10 | COc1ccc(Cc2nn3c(=O)cc(-c4ccccc4)[nH]c3c2-c2ccccc2)cc1 [Example 12, 2-(4-Methoxy-benzyl)-3,5-diphenyl-4H-pyrazolo[1,5-a]pyrimidin-7-one] |
| ≤ 10 | ≥ 10 | Cc1nn2c(=O)c(C#N)c(-c3ccccc3)[nH]c2c1-c1ccccc1 [Example 13, 2-Methyl-7-oxo-3,5-diphenyl-4,7-dihydro-pyrazolo[1,5-a]pyrimidine-6-carbonitrile] |
| ≤ 10 | ≤ 10 | COc1ccc(-c2cc(=O)n3nc(C)c(-c4ccccc4)c3[nH]2)cc1 [Example 14, 5-(4-Methoxy-phenyl)-2-methyl-3-phenyl-4H-pyrazolo[1,5-a]pyrimidin-7-one] |
| ≥ 10 | ≥ 10 | Cc1nn2c(=O)cc(-c3ccccc3)[nH]c2c1-c1ccc(F)cc1 [Example 15, 3-(4-Fluoro-phenyl)-2-methyl-5-phenyl-4H-pyrazolo[1,5-a]pyrimidin-7-one] |
| ≥ 10 | ≥ 10 | O=c1c2c([nH]c3c(-c4ccc(Cl)cc4)c(Cc4ccccc4)nn13)CCC2 [Example 26, 2-Benzyl-3-(4-chlorophenyl)-6,7-dihydro-4H-cyclopenta[d]pyrazolo[1,5-a]pyrimidin-8(5H)-one] |
| ≥ 10 | ≥ 10 | Cc1cc(=O)n2nc(C)c(-c3ccc(Cl)cc3)c2[nH]1 [Example 28, 3-(4-Chloro-phenyl)-2,5-dimethyl-4H-pyrazolo[1,5-a]pyrimidin-7-one] |
